# Data from patent publication US20140107176A1, “METHOD OF MODULATING A PROSTATE CANCER CELL” (Agency for Science, Technology and Research, priority 2012, published 2014).
# Assays:
# Assay type in all cases: cell-based, human
# VCaP cells [1] = test: Time course expression analysis of AR and ERG mRNA and protein in VCaP cells after DHT stimulation; conditions: 10 nM DHT
# Procedure: (§1) FIG. 1. Androgen stimulates distinct expression and chromatin binding profiles for AR and ERG in prostate cancer cells. Time course expression analysis of AR and ERG (A) mRNA and (B) protein levels in VCaP cells after stimulation with 10 nM DHT at various time points. Error bars represent S.E.M of at least 3 independent repeats. (C) Androgen stimulates AR and ERG binding to chromatin. Hormone depleted VCaP cells were treated with 100 nM DHT for 0, 2, or 18 hrs. Cells were cross-linked with formaldehyde and chromatin was immunoprecipitated with antibodies against AR or ERG. Immunoprecipitated DNA was quantified with qPCR for specific binding sites and a randomly selected genomic location as control (ctrl) region. Error bars represent S.E.M of at least 3 independent experiments.
# The human prostate cancer cell line, VCaP (American Type Culture Collection), was maintained in DMEM supplemented with 10% fetal bovine serum (FBS), sodium pyruvate, sodium bicarbonate, and penicillin/streptomycin at 37° C. under 5% CO2. Unless otherwise stated, for experiments requiring DHT (Tokyo Chemical Industry) treatment, VCaP cells were grown for 24 hours prior to stimulation in phenol red free DMEM supplemented with 10% charcoal-dextran stripped fetal bovine serum (CDFBS), sodium pyruvate, sodium bicarbonate, and penicillin/streptomycin.
# Cells were harvested and total RNA was collected in TRI-reagent (Sigma) and purified with PureLink™ RNA Mini Kit (Invitrogen). Reverse transcription of RNA to cDNA was carried out using M-MLV reverse transcriptase (Promega). RNA expression levels were measured using quantitative PCR and normalized to GAPDH. The primers for cDNA quantification can be found in FIG. 9.
# The antibodies used for western blot analysis include anti-AR (sc-816), anti ERG (sc-354), anti-Vinculin (sc-25336) from Santa Cruz, anti-AR (AR441) from Labvision, anti-HDAC1 (#05-100), anti-HDAC2 (#05-814) from Millipore, anti-HDAC3 (#3949) and anti-EZH2 (#3147) from Cell Signaling Technology.
# VCaP cells [2] = test: AR and ERG ChIP-qPCR in VCaP cells after DHT stimulation; conditions: 100 nM DHT
# Procedure: as §1
# (§2) ChIP assay was performed as described previously (47). Briefly, VCaP cells were fixed with 1% formaldehyde (Sigma-Aldrich) for 10 minutes prior to harvesting. Next, the cells were resuspended in SDS lysis buffer containing protease inhibitors. The lysed cells were then sonicated shearing the chromatin into 500-1000 base pairs in length. After pre-clearing with rabbit IgG (Santa Cruz Biotechnology) for 2 hours, the chromatin was immunoprecipitation overnight with the corresponding antibodies and Sepharose beads A (Zymed). After washing the beads, the captured DNA was eluted and de-crosslinked at 65° C. overnight prior to purification with QIAquick spin PCR purification kit (Qiagen). Real-time quantitative Polymerase Chain Reaction (qPCR) was carried out using the KAPA SYBR FAST qPCR kit (Kapa Biosystems).
# All ChIP-qPCR primer sequences can be found in FIG. 8. […] Specifically, cells were first fixed with 2 mM DSG (Pierce) for 45 minutes prior to formaldehyde fixation. Antibodies that were used for ChIP analysis include anti-AR (sc-815x), anti-ERG (sc-353), anti-HDAC3 (sc-11417) from Santa Cruz Biotechnology, anti-HDAC1 (ab7028-50), anti-HDAC2 (ab7029-50) from Abcam, and anti-EZH2 (39933) from Active Motif.
# VCaP cells [3] = test: HDAC1, HDAC2, HDAC3 and EZH2 ChIP-qPCR in VCaP cells before and after DHT treatment; conditions: 100 nM DHT, 2 hrs
# Procedure: FIG. 4. HDACs and EZH2 are recruited to AR binding sites. […] (B) Androgen-depleted VCaP cells were treated with either EtOH or 100 nM DHT for 2 hrs. The cells were then double crosslinked with DSG followed by formaldehyde. […] Error bars represent S.E.M of at least 3 independent experiments.
# as §2
# All ChIP-qPCR primer sequences can be found in FIG. 8. […] Specifically, cells were first fixed with 2 mM DSG (Pierce) for 45 minutes prior to formaldehyde fixation. […]
# HDACs = test: Transcript levels of PSA and FKBP5 in VCaP cells after blocking HDACs with TSA (RT-qPCR); conditions: 24 hours
# Procedure: (§3) FIG. 6. Co-recruitment of ERG, HDACs, and EZH2 to ARBS attenuates AR-dependent transcription. […] (C) VCaP cells grown in full serum (top) or depleted with hormones and treated with 10 nM DHT (bottom) were subjected to varying concentrations of TSA for 24 hours. Total RNA from the treated cells were then harvested and converted to cDNA before quantifying for gene expression levels by qPCR. GAPDH was used as an internal normalization control. Error bars represent S.E.M of at least 3 independent experiments. (D) VCaP cells grown in full serum (top) or depleted with hormone and treated with 10 nM DHT to 8 hours (bottom) were subjected to 3 μM DZNep treatment for 24 (top) or 48 (bottom) hrs. Total RNA was extracted and processed as described in FIG. 6C. Error bars represent S.E.M of at least 3 independent experiments.
# (§4) The human prostate cancer cell line, VCaP (American Type Culture Collection), was maintained in DMEM supplemented with 10% fetal bovine serum (FBS), sodium pyruvate, sodium bicarbonate, and penicillin/streptomycin at 37° C. under 5% CO2. […]
# (§5) Cells were harvested and total RNA was collected in TRI-reagent (Sigma) and purified with PureLink™ RNA Mini Kit (Invitrogen). […] RNA expression levels were measured using quantitative PCR and normalized to GAPDH. The primers for cDNA quantification can be found in FIG. 9. […]
# EZH2 = test: Transcript levels of PSA and FKBP5 in VCaP cells after blocking EZH2 with DZNep (RT-qPCR); conditions: 3 μM DZNep, 24 or 48 hrs
# Procedure: as §3, §4, §5
# VCaP cells [4] = test: Matrigel invasion assay with siRNA-treated VCaP cells; conditions: silencing of VCL, 48 hrs
# Procedure: (§6) FIG. 7. ERG, HDACs, and EZH2 promote cell invasiveness and inhibit epithelial differentiation by antagonizing AR-dependent transcription of cell adhesion molecules. […] Oncomine Molecular Concept Map analysis was performed to compare ERG-associated (5 kb from TSS) androgen induced genes (>2 fold) that were identified in our study against clinical prostate cancer gene signatures available in the Oncomine database. The criteria for significant associations between node is defined as OD>=2; p-value <le-4. (B) Boxplot showing the relative mRNA expression of VCL in clinical prostate samples from the Yu et al (49) study, which has been deposited in the Oncomine database. […] (G) The effect of AR and ERG silencing on VCL gene expression was analyzed as described in FIG. 3D-E. Error bars represent S.E.M of at least 3 independent experiments. (H) The effect of TSA on the androgen-dependent gene regulation of VCL was analyzed as described in FIG. 6C. […] (I) The effect of DZNep on the androgen-dependent gene regulation of VCL was analyzed as described in FIG. 6D. […] The number of cells per high power field (HPF) that passed through the transwell was counted. […] (K) The effect of VCL suppression on cancer cell survival was assessed by flow cytometry. siRNA transfected cells were fixed prior staining with propidium iodide for flow analysis. […]
# VCaP cells [5] = test: Flow cytometry of siRNA transfected VCaP cells (subG1 cell death, BrdU proliferation); conditions: silencing of VCL
# Procedure: as §6
molecule,measurement,setting,value
C[C@]12CCC(=O)C[C@@H]1CC[C@@H]1[C@@H]2CC[C@]2(C)[C@@H](O)CC[C@@H]12 [DHT],mRNA and protein levels of ERG,VCaP cells [1],up-regulated
same,time of peak ERG RNA level,VCaP cells [1],6 h
same,time of peak ERG protein level,VCaP cells [1],12 h
same,AR protein level,VCaP cells [1]; across time,remained relatively constant
same,level of AR mRNA,VCaP cells [1]; across time,repressed
same,AR binding to the enhancer AR binding site (ARBS) of PSA,VCaP cells [2]; 2 hrs,recruited strongly
same,ERG recruitment to the ARBS of PSA and the ERGBS associated with PLA1A,VCaP cells [2]; 2 hrs,recruited
same,AR binding to the enhancer AR binding site (ARBS) of PSA,VCaP cells [2]; 18 hrs,reduced significantly
same,ERG recruitment to the ARBS of PSA and the ERGBS associated with PLA1A,VCaP cells [2]; 18 hrs,further enhanced
same,"recruitment of HDAC1, HDAC2, HDAC3 and EZH2 to AR and ERG co-localized binding sites",VCaP cells [3],in most cases enhanced
"CC(/C=C/C(=O)NO)=C\[C@@H](C)C(=O)c1ccc(N(C)C)cc1 [TSA, Trichostatin A]",PSA and FKBP5 transcript levels,HDACs; high concentrations of TSA,repressive
same,PSA and FKBP5 transcript levels,HDACs; low concentrations of TSA,enhanced
"Nc1nccc2c1ncn2[C@@H]1C=C(CO)[C@@H](O)[C@H]1O [DZNep, 3-deazaneplanocin A]",expression of PSA and FKBP5,EZH2,enhanced
"siVCL: siRNA against VCL synthesized from 1stBase, rCrUrGrGrCrUrUrGrCrArGrArUrCrCrArArArUrUrU [SEQ ID NO.: 5] (CUGGCUUGCAGAUCCAAAUUU; RNA, backbone not given here)",invasiveness of VCaP cells,VCaP cells [4],increased
same,cell death (subG1 phase),VCaP cells [5],not due to differences
same,"cell proliferation (S phase, BrdU)",VCaP cells [5],not due to differences
